# Experimental data taken from PubChem BioAssay AID248 (DTP/NCI, 2004).
# “And” between values parts separate entries of the source, which are not always exact repeats. Equal values may be shown once. Toxic doses and inconclusive results are not listed.
# Test system: L1210 leukemia ip in BDF1 mice, survival T/C
# Assay: NCI In Vivo Anticancer Drug Screen. Data for tumor model L1210 Leukemia (intraperitoneal) in B6D2F1 (BDF1) mice
# Conditions: endpoint: mean survival time, higher = longer survival
# Protocol: The antitumor activity of compounds was measured in mice bearing transplantable tumors. Survival or tumor size were measured and the results are expressed as the measurement made in the treated group (T) divided by the measurement made in the vehicle treated control group (C). The tumor model used in this assay is L1210 Leukemia (intraperitoneal) in B6D2F1 (BDF1) mice
# [1] = dose: 100.0 mg/kg/injection, schedule: Q01DX001 (ip), vehicle: saline
# [2] = dose: 200.0 mg/kg/injection, schedule: Q01DX001 (ip), vehicle: saline
# [3] = dose: 400.0 mg/kg/injection, schedule: Q01DX001 (ip), vehicle: saline
# [4] = dose: 100.0 mg/kg/injection, schedule: Q01DX009 (ip), vehicle: Klucel (hydroxypropylcellulose) (HPC)
# [5] = dose: 100.0 mg/kg/injection, schedule: Q04DX003 (ip), vehicle: Klucel (hydroxypropylcellulose) (HPC)
# [6] = dose: 200.0 mg/kg/injection, schedule: Q04DX003 (ip), vehicle: Klucel (hydroxypropylcellulose) (HPC)
# [7] = dose: 400.0 mg/kg/injection, schedule: Q04DX003 (ip), vehicle: Klucel (hydroxypropylcellulose) (HPC)
compound,measurement,setting,value
O=C(CN1CC1)NCCCCCCCCNC(=O)CN1CC1,T/C,"dose: 4.4 mg/kg/injection, schedule: Q01DX001 (ip), vehicle: carboxymethylcellulose (CMC)",108 % of control
same,T/C,"dose: 6.6 mg/kg/injection, schedule: Q01DX001 (ip), vehicle: carboxymethylcellulose (CMC)",115 % of control
same,T/C,"dose: 7.0 mg/kg/injection, schedule: Q01DX009 (ip), vehicle: carboxymethylcellulose (CMC)",97 % of control
same,T/C,"dose: 10.0 mg/kg/injection, schedule: Q01DX001 (ip), vehicle: carboxymethylcellulose (CMC)",117 % of control
same,T/C,"dose: 11.0 mg/kg/injection, schedule: Q01DX009 (ip), vehicle: carboxymethylcellulose (CMC)",112 % of control
same,T/C,"dose: 15.0 mg/kg/injection, schedule: Q01DX001 (ip), vehicle: carboxymethylcellulose (CMC)",117 % of control
same,T/C,"dose: 25.0 mg/kg/injection, schedule: Q01DX009 (ip), vehicle: carboxymethylcellulose (CMC)",118 % of control
same,T/C,"dose: 33.0 mg/kg/injection, schedule: Q01DX009 (ip), vehicle: carboxymethylcellulose (CMC)",183 % of control
same,T/C,"dose: 40.0 mg/kg/injection, schedule: Q04DX003 (ip), vehicle: Klucel (hydroxypropylcellulose) (HPC)",154 % of control
same,T/C,"dose: 50.0 mg/kg/injection, schedule: Q01DX001 (ip), vehicle: carboxymethylcellulose (CMC)",152 % of control
same,T/C,"dose: 50.0 mg/kg/injection, schedule: Q01DX009 (ip), vehicle: carboxymethylcellulose (CMC)",104 % of control
same,T/C,"dose: 60.0 mg/kg/injection, schedule: Q04DX003 (ip), vehicle: Klucel (hydroxypropylcellulose) (HPC)",173 % of control
same,T/C,"dose: 90.0 mg/kg/injection, schedule: Q04DX003 (ip), vehicle: Klucel (hydroxypropylcellulose) (HPC)",97 % of control
CC1=C(C)C2(C)C1(C)C1(C)NN=NC12c1ccccc1 (configuration not stated),T/C,"dose: 100.0 mg/kg/injection, schedule: Q04DX003 (ip), vehicle: saline with Tween-80",95 % of control
same,T/C,"dose: 200.0 mg/kg/injection, schedule: Q04DX003 (ip), vehicle: saline with Tween-80",91 % of control
same,T/C,"dose: 400.0 mg/kg/injection, schedule: Q04DX003 (ip), vehicle: saline with Tween-80",101 % of control
C(=N\N=c1\[nH][nH]/c(=N/N=C/c2ccc(-c3ccccc3)cc2)c2ccccc12)/c1ccc(-c2ccccc2)cc1,T/C,"dose: 50.0 mg/kg/injection, schedule: Q01DX001 (ip), vehicle: saline",110 % of control
same,T/C,[1],98 % of control
same,T/C,[2],95 % of control
same,T/C,[3],98 % of control
CCn1c2ccccc2c2cc(C=O)ccc21,T/C,"dose: 25.0 mg/kg/injection, schedule: Q01DX009 (ip), vehicle: other",95 % of control
same,T/C,"dose: 50.0 mg/kg/injection, schedule: Q01DX009 (ip), vehicle: other",98 % of control and 106 % of control
same,T/C,"dose: 100.0 mg/kg/injection, schedule: Q01DX009 (ip), vehicle: other",88 % of control
same,T/C,"dose: 200.0 mg/kg/injection, schedule: Q01DX009 (ip), vehicle: other",94 % of control
Cc1ccc2[c](c1)[Sn]([c]1ccccc1)([c]1ccccc1)[c]1cc(C)ccc1N2C,T/C,"dose: 100.0 mg/kg/injection, schedule: Q01DX001 (ip), vehicle: steriod suspending solution",96 % of control
same,T/C,"dose: 200.0 mg/kg/injection, schedule: Q01DX001 (ip), vehicle: steriod suspending solution",94 % of control
same,T/C,"dose: 400.0 mg/kg/injection, schedule: Q01DX001 (ip), vehicle: steriod suspending solution",96 % of control
CCC(=O)Oc1ccccc1C(=O)O,T/C,"dose: 25.0 mg/kg/injection, schedule: Q01DX009 (ip), vehicle: Klucel (hydroxypropylcellulose) (HPC)",98 % of control
same,T/C,"dose: 50.0 mg/kg/injection, schedule: Q01DX009 (ip), vehicle: Klucel (hydroxypropylcellulose) (HPC)",98 % of control
same,T/C,[4],103 % of control
O=C(O)C(O)c1ccc(Cl)cc1 (configuration not stated),T/C,"dose: 100.0 mg/kg/injection, schedule: Q01DX009 (ip), vehicle: saline",96 % of control
same,T/C,"dose: 200.0 mg/kg/injection, schedule: Q01DX009 (ip), vehicle: saline",91 % of control
CCCCc1cn(S(=O)(=O)c2ccc(C)cc2)nn1,T/C,"dose: 100.0 mg/kg/injection, schedule: Q04DX002 (ip), vehicle: saline with Tween-80",106 % of control
same,T/C,"dose: 200.0 mg/kg/injection, schedule: Q04DX002 (ip), vehicle: saline with Tween-80",100 % of control
same,T/C,"dose: 400.0 mg/kg/injection, schedule: Q04DX002 (ip), vehicle: saline with Tween-80",106 % of control
O=C1/C(=C/c2c(Cl)cccc2Cl)CCC/C1=C\c1c(Cl)cccc1Cl,T/C,[4],104 % of control
same,T/C,[5],111 % of control
same,T/C,"dose: 200.0 mg/kg/injection, schedule: Q01DX009 (ip), vehicle: Klucel (hydroxypropylcellulose) (HPC)",108 % of control
same,T/C,[6],101 % of control
same,T/C,"dose: 400.0 mg/kg/injection, schedule: Q01DX009 (ip), vehicle: Klucel (hydroxypropylcellulose) (HPC)",90 % of control
same,T/C,[7],101 % of control
CC(C)(C)C1=CC(C)([N+](=O)[O-])C=C(C(C)(C)C)C1=O,T/C,"dose: 100.0 mg/kg/injection, schedule: Q01DX001 (ip), vehicle: carboxymethylcellulose (CMC)",88 % of control
same,T/C,"dose: 200.0 mg/kg/injection, schedule: Q01DX001 (ip), vehicle: carboxymethylcellulose (CMC)",89 % of control
same,T/C,"dose: 400.0 mg/kg/injection, schedule: Q01DX001 (ip), vehicle: carboxymethylcellulose (CMC)",88 % of control
CC(C)(C)C#N,T/C,[1],109 % of control
same,T/C,[2],101 % of control
same,T/C,[3],95 % of control
c1ccc2cc(SCCCN3CCOCC3)ccc2c1,T/C,"dose: 100.0 mg/kg/injection, schedule: Q01DX009 (ip), vehicle: saline sonified",97 % of control
same,T/C,[5],95 % of control
same,T/C,"dose: 200.0 mg/kg/injection, schedule: Q01DX009 (ip), vehicle: saline sonified",116 % of control
same,T/C,[6],95 % of control
same,T/C,[7],90 % of control
